Source: PMC6240063, “An improved genome assembly for Larimichthys crocea reveals hepcidin gene expansion with diversified regulation and function” (Communications Biology, 2018)
Ends that are not written are not given here.

Tests used:
Escherichia coli = assay: Minimum inhibitory concentration, liquid growth inhibition assay; type: cell-based; conditions: gram-negative, lowest concentration giving 100% decrease in optical density, peptide in PBS pH 7.4
Source text: (§1) The mature peptides of LcHamp1 (HAMP1: […]), LcHamp2-1/4 (HAMP2-1/4: […]), LcHamp2-2 (HAMP2-2: […]), LcHamp2-3 (HAMP2-3: GSPARCRFCCR CCPGMRGCGICCRF), and LcHamp2-5 (HAMP2-5: […]) were synthesized, oxidized, and purified by GL Biochem (Shanghai) Ltd. (Shanghai, China). Purity of the synthesized peptides was >/95%. The synthetic peptides were reconstituted in phosphate buffered saline (PBS; pH 7.4). We tested the antimicrobial activity of synthesized peptides against the five gram-negative bacteria A. hydrophila, E. coli, V. alginolyticus, V. harvryi, and V. parahemolyticus, and three gram-positive bacteria B. subtilis, B. amyloliquefaciens, and S. aureus using liquid growth inhibition assays. The minimum inhibitory concentration was considered the lowest concentration that induced a 100% decrease in the optical density of the bacterial suspension.

Staphylococcus aureus = assay: as above; type: cell-based; conditions: gram-positive, lowest concentration giving 100% decrease in optical density, peptide in PBS pH 7.4
Source text: as §1

Vibrio alginolyticus = assay: as above; type: cell-based; conditions: gram-negative, lowest concentration giving 100% decrease in optical density, peptide in PBS pH 7.4
Source text: as §1

Bacillus subtilis = assay: as above; type: cell-based; conditions: gram-positive, lowest concentration giving 100% decrease in optical density, peptide in PBS pH 7.4
Source text: as §1

Aeromonas hydrophila = assay: as above; type: cell-based; conditions: gram-negative, lowest concentration giving 100% decrease in optical density, peptide in PBS pH 7.4
Source text: as §1

Vibrio parahaemloyticus = assay: as above; type: cell-based; conditions: gram-negative, lowest concentration giving 100% decrease in optical density, peptide in PBS pH 7.4
Source text: as §1

Vibrio harveyi = assay: as above; type: cell-based; conditions: gram-negative, lowest concentration giving 100% decrease in optical density, peptide in PBS pH 7.4
Source text: as §1

[1] = test system: Bacillus amyloliquefaciens; assay: as above; type: cell-based; conditions: gram-positive, lowest concentration giving 100% decrease in optical density, peptide in PBS pH 7.4
Source text: as §1

[2] = test system: Singapore grouper iridovirus (SGIV); assay: Antiviral activity in SGIV-infected grouper spleen cells; type: cell-based; conditions: grouper spleen cells pretreated 1 h with 50 µg/mL peptide, SGIV at MOI 2; cytopathic effect, ORF072 and ORF086 expression (real-time PCR), viral titer TCID50; three independent experiments
Protocol: The antiviral activity of synthetic L. crocea hepcidins was tested in grouper spleen cells, in which a viral infection model has already been established. Grouper spleen cells were seeded onto 6-well plates (Thermo Fisher Scientific, USA) for 18 h. The grouper spleen cells were pretreated for 1 h with each synthetic Hamp peptide at a final concentration of 50 µg/mL or with PBS (as a control). After pretreatment, the cells were infected with SGIV at a multiplicity of infection of 2. At 24 h post infection, cytopathic effects in the grouper spleen cells were observed microscopically (Leica Microsystems, Germany). The expression levels of two genes encoding SGIV envelope proteins (ORF072 and ORF086) were measured with real-time PCR. E. coioides β-actin (Ecβ-actin) was amplified as an internal control. The expression level of ORF072 or ORF086 was normalized to Ecβ-actin using the 2^–ΔΔCT method. Moreover, supernatants and infected cell lysates were collected to determine the viral titer 50% tissue culture infectious dose[50]. All data were obtained from three independent experiments with each performed in triplicate.

[3] = test system: five gram-negative bacteria and three gram-positive bacteria; assay: Minimum inhibitory concentration across all tested bacteria; type: cell-based; conditions: all eight tested bacteria (five gram-negative, three gram-positive); liquid growth inhibition; no antibacterial activity at highest concentration given as >
Source text: as §1

[4] = test system: macrophages from L. crocea head kidney; assay: Intracellular iron in macrophages; type: cell-based, Larimichthys crocea; conditions: 100 ng/mL peptide, 2 h, ICP-MS, versus PBS control, P < 0.05, three independent experiments
Protocol: Six groups of macrophages (1 × 10^6 cells per well) were seeded onto 6-well plates for 18 h. To each of five of the groups, we added one synthetic hepcidin peptide from L. crocea, with a final concentration of 100 ng/mL. The sixth group (control) was treated with PBS. After 2 h incubation, we measured the intracellular iron concentration of macrophages with Inductively Coupled Plasma Mass Spectrometry. The fold change was expressed as the intracellular iron concentration in macrophages treated with synthetic hepcidin peptides versus the intracellular iron concentration in the control macrophages.

Row | Sequence | MIC (Escherichia coli) [µM] | MIC (Staphylococcus aureus) [µM] | MIC (Vibrio alginolyticus) [µM] | MIC (Bacillus subtilis) [µM] | MIC (Aeromonas hydrophila) [µM] | MIC (Vibrio parahaemloyticus) [µM] | MIC (Vibrio harveyi) [µM] | MIC [1] [µM] | antiviral activity against SGIV infection [2] | minimum inhibitory concentrations for the bacterial species tested [3] [µM] | intracellular iron content of macrophages (regulatory effect on iron metabolism) [4]
1 | GSPARCRFCCR CCPGMRGCGICCRF (disulfide) (disulfide (positions not given here)) [HAMP2-3, synthetic, oxidized mature peptide of Larimichthys crocea hepcidin LcHamp2-3] | 16 | 4 | 16 | 4 | 16 | 16 | 16 | 8 | exhibited antiviral activity |  | 
2 | GSPARCRFCCRCCPRMRGCGICCRF (disulfide) (disulfide (positions not given here)) [HAMP2-5, synthetic, oxidized mature peptide of Larimichthys crocea hepcidin LcHamp2-5] | 0.5 | 0.5 | 0.25 | 0.25 | 1 | 0.5 | 0.5 | 1 | no identifiable antiviral activity |  | 
3 | QSHISLCRYCCNCCKNKGCGYCCRF (disulfide (positions not given here)) [HAMP1, synthetic, oxidized mature peptide of Larimichthys crocea hepcidin LcHamp1] |  |  |  |  |  |  |  |  | no identifiable antiviral activity | > 300 | increases in iron content
4 | SSAAKCQFCCRCCPDMIGCGICCRF (disulfide (positions not given here)) [HAMP2-1/4] |  |  |  |  |  |  |  |  | exhibited antiviral activity | > 300 | increases in iron content
5 | SSAAKCQFCCRCCPRMSGCGVCCRF (disulfide (positions not given here)) [HAMP2-2, synthetic, oxidized mature peptide of Larimichthys crocea hepcidin LcHamp2-2] |  |  |  |  |  |  |  |  | no identifiable antiviral activity | > 300 | no antibacterial activity, antiviral activity or regulatory effect on iron metabolism
